Data on 22 compounds can be found in patent US20260315464A1, “COMPOSITIONS, METHODS, AND SYSTEMS FOR MODULATING SPLICING OF MSH3” (REVIR THERAPEUTICS, INC., priority 2023, published 2026).

Usually EC50 stands for the concentration needed to bring the measured effect to its halfway point.

The subject of the experiment is MSH3. The experiment in a line: QPCR assay for levels of MSH3 upon compound treatment in HEK293T or AD293 cells (fold-change of MSH3 transcript, EC50 of MSH3 downregulation; total MSH3 exons 13/14, exons 20/21; Table 8). To be noted: for mrna remaining at 1 µM / mrna remaining at 10 µM: Homo sapiens, fold-change of the MSH3 transcript, normalized to GAPDH; for mrna remaining at 1 µM: 1 μM compound; for mrna remaining at 10 µM: 10 μM compound; for EC50: EC50 of MSH3 downregulation, XtalPi. In kind it is cell-based. An outline of the steps:
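MSH3 mRNA was quantified by TaqMan qPCR covering exons 13/14, exons 20/21, exon 13/PE14A and exon 20/PE21A, with GAPDH as reference. Cells used were HEK293T or AD293, treated with compound at 1 μM and […].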

With `CN(c1ccc(N2Cc3ccc(-c4cnn(C)c4)cc3C2=O)nn1)[C@H]1C[C@]2(C)CC[C@](C)(C1)N2` [Compound 367, 2-(6-(((1R,3s,5S)-1,5-dimethyl-8-azabicyclo[3.2.1]octan-3-yl)(methyl)amino)pyridazin-3-yl)-6-(1-methyl-1H-pyrazol-4-yl)isoindolin-1-one], the mrna remaining at 1 µM turned out to be 57% and the mrna remaining at 10 µM was 27%.

With `Cn1nc(Cl)c(-c2cnc3c(c2)C(=O)N(c2ccc(O[C@@H]4CCC(C)(C)NC(C)(C)C4)nn2)C3)n1` [Compound 605, (R)-3-(5-chloro-2-methyl-2H-1,2,3-triazol-4-yl)-6-(6-((2,2,7,7-tetramethylazepan-4-yl)oxy)pyridazin-3-yl)-6,7-dihydro-5H-pyrrolo[3,4-b]pyridin-5-one], the mrna remaining at 1 µM amounted to 82% and the mrna remaining at 10 µM was 56%.

Take `Cn1nc(Cl)c(-c2cc(F)c3c(c2)C(=O)N(c2ccc(N4CC5CCC(C4)N5)nn2)C3)n1` [Compound 653, 2-(6-(3,8-diazabicyclo[3.2.1]octan-3-yl)pyridazin-3-yl)-6-(5-chloro-2-methyl-2H-1,2,3-triazol-4-yl)-4-fluoroisoindolin-1-one]: the mrna remaining at 1 µM was found to be 93% and the mrna remaining at 10 µM came to 27%.

Regarding `Cc1nn(C)cc1-c1cnc2c(c1)C(=O)N(c1ccc(N(C3CC3)C3CC(C)(C)NC(C)(C)C3)nn1)C2` [Compound 487, 6-(6-(cyclopropyl(2,2,6,6-tetramethylpiperidin-4-yl)amino)pyridazin-3-yl)-3-(1,3-dimethyl-1H-pyrazol-4-yl)-6,7-dihydro-5H-pyrrolo[3,4-b]pyridin-5-one], the mrna remaining at 1 µM is 133% and the mrna remaining at 10 µM was 31%.

On to `CCN1CC2CN(c3ccc(N4Cc5c(F)cc(-c6nn(C)nc6Cl)cc5C4=O)nn3)CC2C1` (stereo not drawn) [Compound 654, 6-(5-chloro-2-methyl-2H-1,2,3-triazol-4-yl)-2-(6-(5-ethylhexahydropyrrolo[3,4-c]pyrrol-2(1H)-yl)pyridazin-3-yl)-4-fluoroisoindolin-1-one], for which the mrna remaining at 1 µM turned out to be 90% and the mrna remaining at 10 µM was found to be 61%.

Take `Cn1nc(Cl)c(-c2cnc3c(c2)C(=O)N(c2ccc(S[C@H]4C[C@]5(C)CC[C@](C)(C4)N5)nn2)C3)n1` [Compound 610, 3-(5-chloro-2-methyl-2H-1,2,3-triazol-4-yl)-6-(6-(((1R,3s,5S)-1,5-dimethyl-8-azabicyclo[3.2.1]octan-3-yl)thio)pyridazin-3-yl)-6,7-dihydro-5H-pyrrolo[3,4-b]pyridin-5-one]: the mrna remaining at 1 µM was determined as 93% and the mrna remaining at 10 µM was 66%.

In the case of `CC[C@]12CC[C@](CC)(C[C@@H](Oc3ccc(N4Cc5cnc(-c6cn(C)nc6C)cc5C4=O)nn3)C1)N2` [Compound 100, 2-(6-(((1R,3s,5S)-1,5-diethyl-8-azabicyclo[3.2.1]octan-3-yl)oxy)pyridazin-3-yl)-6-(1,3-dimethyl-1H-pyrazol-4-yl)-2,3-dihydro-1H-pyrrolo[3,4-c]pyridin-1-one], the mrna remaining at 1 µM is 65% and the mrna remaining at 10 µM stood at 11%.

Take `Cc1nn(C)cc1-c1cnc2c(n1)C(=O)N(c1ccc(O[C@H]3C[C@]4(C)CC[C@](C)(C3)N4)nn1)C2` [Compound 622, 3-(1,3-dimethyl-1H-pyrazol-4-yl)-6-(6-(((1R,3s,5S)-1,5-dimethyl-8-azabicyclo[3.2.1]octan-3-yl)oxy)pyridazin-3-yl)-6,7-dihydro-5H-pyrrolo[3,4-b]pyrazin-5-one]: the mrna remaining at 1 µM was found to be 76% and the mrna remaining at 10 µM stood at 30%.

As for `CN(c1ccc(N2Cc3ncc(-c4nn(C)nc4Cl)cc3C2=O)nn1)[C@H]1C[C@]2(C)CC[C@](C)(C1)N2` [Compound 589, 3-(5-chloro-2-methyl-2H-1,2,3-triazol-4-yl)-6-(6-(((1R,3s,5S)-1,5-dimethyl-8-azabicyclo[3.2.1]octan-3-yl)(methyl)amino)pyridazin-3-yl)-6,7-dihydro-5H-pyrrolo[3,4-b]pyridin-5-one], the midpoint of the response, the EC50, lay at 349 nM; the mrna remaining at 1 µM stood at 20%; the mrna remaining at 10 µM is 11%.

In the case of `Cn1nc(Cl)c(-c2cc(F)c3c(c2)C(=O)N(c2ccc(N4CCC5CCC(C4)N5)nn2)C3)n1` (stereo not drawn) [Compound 659, 2-(6-(3,9-diazabicyclo[4.2.1]nonan-3-yl)pyridazin-3-yl)-6-(5-chloro-2-methyl-2H-1,2,3-triazol-4-yl)-4-fluoroisoindolin-1-one], the mrna remaining at 1 µM turned out to be 142% and the mrna remaining at 10 µM turned out to be 57%.

On to `Cn1cc(-c2cnc3c(c2)C(=O)N(c2ccc(O[C@H]4C[C@]5(C)CC[C@](C)(C4)N5)nn2)C3)c(Cl)n1` [Compound 261, 3-(3-chloro-1-methyl-1H-pyrazol-4-yl)-6-(6-(((1R,3s,5S)-1,5-dimethyl-8-azabicyclo[3.2.1]octan-3-yl)oxy)pyridazin-3-yl)-6,7-dihydro-5H-pyrrolo[3,4-b]pyridin-5-one], for which the mrna remaining at 1 µM was 48% and the mrna remaining at 10 µM came to 7%.

For the compound `Cc1nn(C)nc1-c1cnc2c(n1)C(=O)N(c1ccc(O[C@H]3C[C@]4(C)CC[C@](C)(C3)N4)nn1)C2` [Compound 623, 3-(2,5-dimethyl-2H-1,2,3-triazol-4-yl)-6-(6-(((1R,3s,5S)-1,5-dimethyl-8-azabicyclo[3.2.1]octan-3-yl)oxy)pyridazin-3-yl)-6,7-dihydro-5H-pyrrolo[3,4-b]pyrazin-5-one], a half-maximal response (EC50) required 2990 nM, the mrna remaining at 1 µM stood at 60% and the mrna remaining at 10 µM is 13%.

Take `Cc1nn(C)cc1-c1cnc2c(n1)C(=O)N(c1ccc(N(C)[C@H]3C[C@]4(C)CC[C@](C)(C3)N4)nn1)C2` [Compound 496, 3-(1,3-dimethyl-1H-pyrazol-4-yl)-6-(6-(((1R,3s,5S)-1,5-dimethyl-8-azabicyclo[3.2.1]octan-3-yl)(methyl)amino)pyridazin-3-yl)-6,7-dihydro-5H-pyrrolo[3,4-b]pyrazin-5-one]: a half-maximal response (EC50) required 690 nM. In other words, the sub-micromolar range.

For the compound `Cc1nc(C)c(-c2cc(F)c3c(c2)C(=O)N(c2ccc(N(C)[C@H]4C[C@]5(C)CC[C@](C)(C4)N5)nn2)C3)s1` [Compound 289, 2-(6-(((1R,3s,5S)-1,5-dimethyl-8-azabicyclo[3.2.1]octan-3-yl)(methyl)amino)pyridazin-3-yl)-6-(2,4-dimethylthiazol-5-yl)-4-fluoroisoindolin-1-one], the mrna remaining at 1 µM stood at 73% and the mrna remaining at 10 µM was found to be 22%.

Turning to `Cc1nc(C)c(-c2cnc3c(c2)C(=O)N(c2ccc(N(C)C4CC(C)(C)NC(C)(C)C4)nn2)C3)s1` [Compound 167, 3-(2,4-dimethylthiazol-5-yl)-6-(6-(methyl(2,2,6,6-tetramethylpiperidin-4-yl)amino)pyridazin-3-yl)-6,7-dihydro-5H-pyrrolo[3,4-b]pyridin-5-one], the mrna remaining at 1 µM was 47% and the mrna remaining at 10 µM amounted to 11%.

Consider `Cc1nn(C)nc1-c1cc(F)c2c(c1)C(=O)N(c1ccc(N3CCCNCC3)nn1)C2` [Compound 669, 2-(6-(1,4-diazepan-1-yl)pyridazin-3-yl)-6-(2,5-dimethyl-2H-1,2,3-triazol-4-yl)-4-fluoroisoindolin-1-one], for which the mrna remaining at 1 µM stood at 97% and the mrna remaining at 10 µM came out at 42%.

For the compound `CN(c1ccc(N2Cc3c(C#N)cc(-c4nnn(C)n4)cc3C2=O)nn1)[C@H]1C[C@]2(C)CC[C@](C)(C1)N2` [Compound 693, 2-(6-(((1R,3s,5S)-1,5-dimethyl-8-azabicyclo[3.2.1]octan-3-yl)(methyl)amino)pyridazin-3-yl)-6-(2-methyl-2H-tetrazol-5-yl)-1-oxoisoindoline-4-carbonitrile], the mrna remaining at 1 µM amounted to 94% and the mrna remaining at 10 µM was determined as 40%.

`CN(c1ccc(N2Cc3ncc(-c4cn(C)nc4Cl)cc3C2=O)nn1)[C@H]1C[C@]2(C)CC[C@](C)(C1)N2` [Compound 609, 3-(3-chloro-1-methyl-1H-pyrazol-4-yl)-6-(6-(((1R,3s,5S)-1,5-dimethyl-8-azabicyclo[3.2.1]octan-3-yl)(methyl)amino)pyridazin-3-yl)-6,7-dihydro-5H-pyrrolo[3,4-b]pyridin-5-one]: the mrna remaining at 1 µM was 39% and the mrna remaining at 10 µM is 7%.

For the compound `Cn1nc(Cl)c(-c2cc(C#N)c3c(c2)C(=O)N(c2ccc(OC4CC(C)(C)NC(C)(C)C4)nn2)C3)n1` [Compound 680, 6-(5-chloro-2-methyl-2H-1,2,3-triazol-4-yl)-1-oxo-2-(6-((2,2,6,6-tetramethylpiperidin-4-yl)oxy)pyridazin-3-yl)isoindoline-4-carbonitrile], the mrna remaining at 1 µM stood at 94% and the mrna remaining at 10 µM is 31%.

For the compound `[2H]C([2H])([2H])n1cc(-c2ccc3c(c2)C(=O)N(c2ccc(N(C)[C@H]4C[C@]5(C)CC[C@](C)(C4)N5)nn2)C3)cn1` [Compound 387, 2-(6-(((1R,3s,5S)-1,5-dimethyl-8-azabicyclo[3.2.1]octan-3-yl)(methyl)amino)pyridazin-3-yl)-6-(1-(methyl-d3)-1H-pyrazol-4-yl)isoindolin-1-one], the mrna remaining at 1 µM worked out at 96% and the mrna remaining at 10 µM was determined as 63%.

As to `Cn1nc(Cl)c(-c2cc3c(cn2)CN(c2ccc(O[C@H]4C[C@]5(C)CC[C@](C)(C4)N5)nn2)C3=O)n1` [Compound 460, 6-(5-chloro-2-methyl-2H-1,2,3-triazol-4-yl)-2-(6-(((1R,3s,5S)-1,5-dimethyl-8-azabicyclo[3.2.1]octan-3-yl)oxy)pyridazin-3-yl)-2,3-dihydro-1H-pyrrolo[3,4-c]pyridin-1-one], the mrna remaining at 1 µM amounted to 80% and the mrna remaining at 10 µM was 25%.

In the case of `Cc1nn(C)nc1-c1cc(F)c2c(c1)C(=O)N(c1ccc(N3CC4(CNC4)C3)nn1)C2` [Compound 666, 2-(6-(2,6-diazaspiro[3.3]heptan-2-yl)pyridazin-3-yl)-6-(2,5-dimethyl-2H-1,2,3-triazol-4-yl)-4-fluoroisoindolin-1-one], the mrna remaining at 1 µM stood at 97% and the mrna remaining at 10 µM worked out at 59%.
